Assay results reported in article PMC3375280 (PLoS ONE, 2012).
Numbering of substitutions follows the chain as printed.

Columns and labels:
[1] = molecular target: T1, AT1 A114G mutant receptor (Rattus norvegicus, UniProt P25095, A114G); test: competition binding, A114G mutant; settings: for Kd ratio relative to WT (in parentheses): A114G / WT; for Kd: A114G, COS1 membranes, read-out: Binding affinity (Kd)
T1 construct: expressed in transfected cells; host or cells: COS1
T1 sequence (P25095 1-359 A114G): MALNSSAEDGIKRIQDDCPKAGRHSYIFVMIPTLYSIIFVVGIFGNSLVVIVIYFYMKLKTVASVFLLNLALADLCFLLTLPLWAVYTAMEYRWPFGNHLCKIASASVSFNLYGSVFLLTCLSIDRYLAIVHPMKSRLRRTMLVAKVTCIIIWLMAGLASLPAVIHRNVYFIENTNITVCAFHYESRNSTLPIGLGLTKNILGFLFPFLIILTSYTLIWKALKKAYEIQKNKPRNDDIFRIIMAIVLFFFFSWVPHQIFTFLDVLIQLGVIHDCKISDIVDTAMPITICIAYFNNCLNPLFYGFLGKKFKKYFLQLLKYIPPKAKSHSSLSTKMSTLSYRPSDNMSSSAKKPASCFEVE
Description: (§1) The Kd and Bmax values of receptor binding were determined by ^125I-[Sar^1, Ile^8] […] Membranes expressing the WT or mutant AT1 receptors were incubated with 100 pM ^125I-[Sar^1, Ile^8] […] The binding reaction was terminated by filtering the incubation mixture through Whatman GF/C glass filters, and the residues were extensively washed further with binding buffer. The bound ligand fraction was determined from the counts per minute (cpm) remaining on the membrane. Binding kinetics values were determined as previously described.

[2] = molecular target: T2, AT1 Y113A mutant receptor (Rattus norvegicus, UniProt P25095, Y113A); test: competition binding, Y113A mutant; settings: for Kd ratio relative to WT (in parentheses): Y113A / WT; for Kd: Y113A, COS1 membranes, read-out: Binding affinity (Kd)
T2 construct: expressed in transfected cells; host or cells: COS1
T2 sequence (P25095 1-359 Y113A): T1 sequence (P25095 1-359 A114G) with Y113A, G114A
Description: as §1

[3] = molecular target: T3, AT1 Y113F mutant receptor (Rattus norvegicus, UniProt P25095, Y113F); test: competition binding, Y113F mutant; settings: for Kd ratio relative to WT (in parentheses): Y113F / WT; for Kd: Y113F, COS1 membranes, read-out: Binding affinity (Kd)
T3 construct: expressed in transfected cells; host or cells: COS1
T3 sequence (P25095 1-359 Y113F): T1 sequence (P25095 1-359 A114G) with Y113F, G114A
Description: as §1

[4] = molecular target: T4, AT1 C76A/V116C/C289A mutant receptor (Rattus norvegicus, UniProt P25095, C289A/C76A/V116C); test: competition binding, C76A/V116C/C289A mutant; settings: for Kd ratio relative to WT (in parentheses): C76A/V116C/C289A / WT; for Kd: C76A/V116C/C289A, COS1 membranes, read-out: Binding affinity (Kd)
T4 construct: expressed in transfected cells; host or cells: COS1 cells (membranes)
T4 sequence (P25095 1-359 C76A/V116C/C289A): T1 sequence (P25095 1-359 A114G) with C76A, G114A, V116C, C289A
Description: as §1

[5] = molecular target: T5, AT1 F110A mutant receptor (Rattus norvegicus, UniProt P25095, F110A); test: competition binding, F110A mutant; settings: for Kd ratio relative to WT (in parentheses): F110A / WT; for Kd: F110A, COS1 membranes, read-out: Binding affinity (Kd)
T5 construct: expressed in transfected cells; host or cells: COS1
T5 sequence (P25095 1-359 F110A): T1 sequence (P25095 1-359 A114G) with F110A, G114A
Description: as §1

[6] = molecular target: T6, AT1 C76A/F110C/C289A mutant receptor (Rattus norvegicus, UniProt P25095, C289A/C76A/F110C); test: competition binding, C76A/F110C/C289A mutant; settings: for Kd ratio relative to WT (in parentheses): C76A/F110C/C289A / WT; for Kd: C76A/F110C/C289A, COS1 membranes, read-out: Binding affinity (Kd)
T6 construct: expressed in transfected cells; host or cells: COS1
T6 sequence (P25095 1-359 C76A/F110C/C289A): T1 sequence (P25095 1-359 A114G) with C76A, F110C, G114A, C289A
Description: as §1

SMILES | Kd ratio relative to WT (in parentheses) [1] [fold] | Kd [1] [nM] | Kd ratio relative to WT (in parentheses) [2] [fold] | Kd [2] [nM] | Kd ratio relative to WT (in parentheses) [3] [fold] | Kd [3] [nM] | Kd ratio relative to WT (in parentheses) [4] [fold] | Kd [4] [nM] | Kd ratio relative to WT (in parentheses) [5] [fold] | Kd [5] [nM] | Kd ratio relative to WT (in parentheses) [6] [fold] | Kd [6] [nM] | Kd ratio relative to WT (in parentheses) ([3]; listed as olmesartan) [fold]
CCCc1nc(C(C)(C)O)c(C(N)=O)n1Cc1ccc(-c2ccccc2-c2nnn[nH]2)cc1 [R239470] | 1.4 | 1.1 ± 0.1 | 183 | 146 ± 15 | 21 | 17 ± 3 | 3.1 | 2.5 ± 1 | 1.5 | 1.2 ± 0.3 | 3.0 | 2.4 ± 1.1 | 
CCCc1nc(C(C)(C)O)c(C(N)=O)n1Cc1ccc(-c2cc(Cc3ccc(O)cc3)ccc2-c2nnn[nH]2)cc1 [R794847] | 3.8 | 183 ± 17 | 38 | 1800 ± 205 | 8.1 | 388 ± 54 | 0.8 | 39 ± 3 | 1.4 | 68 ± 19 | 2.6 | 126 ± 13 | 
CCCc1nc(C(C)(C)O)c(C(=O)O)n1Cc1ccc(-c2ccccc2-c2nnn[nH]2)cc1 [Olmesartan, olmesartan, reference compound] | 1.7 | 4 ± 1.4 | 5.2 | 12 ± 3 | 23 | 52 ± 7 | 2.7 | 6.2 ± 1.7 | 1.1 | 2.6 ± 0.5 | 2.9 | 6.6 ± 2.4 | > 10
